Read-outs that look alike come from different tables or passages of the source.
Columns and labels:
beagle dogs [1] = assay: Electrocardiography in the 13-week repeated-dose dog study; type: in vivo; conditions: for Heart rate: 6 mg kg^-1 per day (ART p.o., ARM i.m.), vs control group
Protocol: (§1) The first day of treatment was regarded as day one in the study. […] Oral administration was performed about 2 h after feeding. ARM was administered by a bolus intramuscular infusion through a 25-gauge needle at a constant volume of 2 ml kg^−1 once a day into the gluteal and infraspinous muscles. Two dogs of each sex from each group were allowed to recover without further treatment for an additional 4 weeks.
Electrocardiograms were recorded using an Auto Electrocardiogram (ECG-9130P, Nihon Kohden Corporation, Japan). Recordings were taken from each dog, while conscious, every 2 weeks from week-1. Leads I, II, III, aVR, aVL and aVF were utilized. The electrocardiography (ECG) parameters included heart rate, PR, QRS and QT interval, and QRS and T wave amplitudes. As the PQ and QT intervals vary with heart rate, they were adjusted to an RR-interval of 500 ms, corresponding to a heart rate of 120 bpm using the following equation: QT500 = QT – 0.084×(RR – 500).

beagle dogs [2] = assay: Clinical chemistry in the 13-week repeated-dose dog study; type: in vivo
Protocol: as §1
(§2) Blood samples were collected from the femoral vein of each dog prior to treatment and every 2 weeks after the first day of treatment. Hematology parameters were measured using an automated hematology analyzer (Sysmex, XT-2000iv, Toa Medical Electronics Co. Ltd., Kobe, Japan) using standard methods. Test parameters included hemoglobin (Hb) levels, the hematocrit (Hct) fraction, erythrocyte (RBC) count, leukocyte (WBC) count, neutrophilic granulocyte fraction (NE%), monocyte fraction (MO%), lymphocyte levels (LY%), platelet count (PLT), reticulocyte count (RET%) and RBC morphology. The following clinical chemistry parameters were measured using a Hitachi-7180 Chemistry Analyzer (High-Technologies Corporation, Tokyo, Japan) and standard methods: glucose, blood urea nitrogen, inorganic phosphorus, creatinine, total protein, albumin, calcium, aspartate aminotransferase (AST), alanine aminotransferase, alkaline phosphatase, total bilirubin, creatine kinase (CK), sodium, potassium and chloride.

beagle dogs [3] = assay: Hematology in the 13-week repeated-dose dog study; type: in vivo
Protocol: as §1, §2
The differential granulocytic and erythrocytic series (erythroid, myeloid blast cell count and the red ratio) were determined manually from blood smears.

[4] = Toxicokinetic analysis of plasma drug levels (HPLC); type: in vivo, dog; conditions: for AUC: 6 mg kg^−1 daily, ART p.o.; for maximum plasma concentration after dosing: daily i.m. 6 mg kg^−1
Protocol: as §1
For toxicokinetic analysis, blood samples were collected on weeks 1, 2, 4, 8 and 13 at 0 (before dosing), 0.5, 1, 2, 4, 8, 12 and 24 h after dosing. Approximately 1 ml blood was drawn from the antebrachial, cephalic or jugular vein of three animals of each sex per time point and deposited into heparinized tubes for immediate centrifugation at 3000 rpm at 4°C for 10 min. The plasma was then immediately transferred to 2 ml polypropylene tubes and stored on dry ice. Samples were stored at −80°C until HPLC analysis.

beagle dogs [5] = assay: Severity grading of muscle tissue injury at the intramuscular injection site; type: in vivo, dog; conditions: for Severity of muscle tissue injury at the injection site: n=4
Protocol: as §1
Termination of treatment was scheduled to occur on weeks 4, 8 (two interim necropsies) and 13, followed by a 4-week recovery period. For pathological examinations, the animals were euthanized within 24 h of the final drug administration with sodium pentobarbital, followed by exsanguination via the femoral artery. A gross necropsy was performed, including a thorough visual examination of all the internal organs. Weights were obtained for the brain, heart, liver, spleen, lung, kidneys, adrenals, thyroid/parathyroids, thymus, pancreas and ovaries/testes/prostate, and organ-to-body weight ratios were calculated. For each animal, representative samples from approximately 48 organs and tissues were taken and fixed in neutral buffered 10% formalin, except for the sternum, which was retained in Helly’s fixative (1000 ml distilled water, 25 g potassium dichromate, 10 g sodium sulfate, 50 g mercuric chloride, 50 ml 40% formaldehyde). Histopathological sections of all samples were prepared by embedding in paraffin wax, multiple-sectioning and staining with hematoxylin and eosin (HE). Samples of the left ventricular myocardium, right lateral hepatic lobe and right kidney from two animals of each sex from each group were fixed immediately after exsanguination in 2.5% glutaraldehyde, post-fixed in 1.0% osmium tetroxide, and embedded in plastic. Ultrathin liver, kidney and heart sections were examined with a Hitachi H-600 transmission electron microscope (TEM). All other tissues were examined by light microscopy.
Gross findings in the ART and ARM treatment groups were limited to the injection sites.

beagle dogs [6] = assay: Organ weights at necropsy; type: in vivo, dog
Protocol: as §1
(§3) Termination of treatment was scheduled to occur on weeks 4, 8 (two interim necropsies) and 13, followed by a 4-week recovery period. For pathological examinations, the animals were euthanized within 24 h of the final drug administration with sodium pentobarbital, followed by exsanguination via the femoral artery. A gross necropsy was performed, including a thorough visual examination of all the internal organs. Weights were obtained for the brain, heart, liver, spleen, lung, kidneys, adrenals, thyroid/parathyroids, thymus, pancreas and ovaries/testes/prostate, and organ-to-body weight ratios were calculated. For each animal, representative samples from approximately 48 organs and tissues were taken and fixed in neutral buffered 10% formalin, except for the sternum, which was retained in Helly’s fixative (1000 ml distilled water, 25 g potassium dichromate, 10 g sodium sulfate, 50 g mercuric chloride, 50 ml 40% formaldehyde). […]

beagle dogs [7] = assay: Ultra-structural examination of liver, kidney and heart by transmission electron microscopy; type: in vivo, dog; conditions: weeks 4, 8 and 13; TEM
Protocol: as §1, §3

Rats [8] = test system: Rats; parameters: method as in Akinlolu and Shokunbi, 2008 [41]; conditions: 25 mg kg^−1 per day, i.m. for 7 days, ref Akinlolu and Shokunbi, 2008 [41]; cited from earlier work
Mouse = test system: Mouse; parameters: method as in Nontprasert et al., 2000 [42]; conditions: 300 mg kg^−1 per day, p.o. for 28 days, ref Nontprasert et al., 2000 [42]; cited from earlier work
Rats [9] = test system: Rats; parameters: method as in Xiao et al. (2002) [31]; conditions: cited from earlier work
[10] = parameters: method as in Li et al. (2006); conditions: applied to ARM plasma levels; ref Li et al. (2006); cited from earlier work
[11] = weeks 4 and 6 post-treatment, vs control group (p<0.01)
[12] = week 2 until week 10 post-treatment, vs control groups (p<0.05)
[13] = oral 80 and 400 mg kg^−1 once every 2 weeks for 5 months, ref Xiao et al. (2002) [31]
[14] = oral high dose of 400 mg kg^−1, ref Xiao et al. (2002) [31]

Q: For `CO[C@H]1O[C@@H]2O[C@@]3(C)CC[C@H]4[C@H](C)CC[C@@H]([C@H]1C)[C@@]24OO3` [ARM, artemether], which Heart rate (beagle dogs [1]; Week 4) is on record?
A: - (“-” = No effect)

Q: What about the Heart rate (beagle dogs [1]; Week 8) of the same molecule?
A: - (“-” = No effect)

Q: What about the Heart rate (beagle dogs [1]; Week 13) of the same molecule?
A: - (“-” = No effect)

Q: And the “mean QT intervals (adjusted for heart rate, QT500)” value (beagle dogs [1]; week 3 until the final drug treatment, male and female dogs, vs vehicle control)?
A: prolonged

Q: And the “Clinical chemistry: AST(M)” value (beagle dogs [2]; Week 13, males, 6 mg kg^-1 per day)?
A: ↑↑AST(M)

Q: What about the “serum AST” value (beagle dogs [2]; [11]) of the same molecule?
A: significant increases

Q: And the “serum CK” value (beagle dogs [2]; [11])?
A: significant increases

Q: And the serum albumin levels (beagle dogs [2]; weeks 4 and 10, same changes also in peanut oil only group)?
A: significant decrease

Q: And the “Hematology (overall)” value (beagle dogs [3]; Week 13, 6 mg kg^-1 per day)?
A: - (“-” = No effect)

Q: And the MO% (beagle dogs [3]; females, after weeks 6, 8 and 10 (p<0.05))?
A: significant increases

Q: And the Hb levels (beagle dogs [3]; week 2)?
A: corresponding decrease

Q: What about the RBC counts (beagle dogs [3]; week 2) of the same molecule?
A: decrease

Q: What about the LY% (beagle dogs [3]; [12]) of the same molecule?
A: decreased

Q: And the NE% (beagle dogs [3]; [12])?
A: significantly increased

Q: What about the WBC count (beagle dogs [3]; [12]) of the same molecule?
A: significantly increased

Q: And the RET% (beagle dogs [3]; week 10, males and females, vs peanut oil control group (p<0.05))?
A: significant increase

Q: What about the AUC ([4]; both sexes, beagle, dog, plasma, other: ART p.o., ARM i.m., 6 mg/kg, week 8, ARM i.m., dog plasma, read-out: AUC8w) of the same molecule?
A: 10.9 ± 11.6 ng·h/mL

Q: What about the AUC ([4]; both sexes, beagle, dog, plasma, other: ART p.o., ARM i.m., 6 mg/kg, week four, ARM i.m., dog plasma, read-out: AUC4w) of the same molecule?
A: 739 ± 209 ng·h/mL

Q: What about the AUC(0-t) ([4]; both sexes, beagle, dog, plasma, other: ART p.o., ARM i.m., 6 mg/kg, read-out: AUC93D) of the same molecule?
A: 71.3 ± 56.6 ng·h/mL

Q: What about the Cmax ([4]; both sexes, beagle, im, week four, 6 mg kg^−1 daily i.m., dog plasma, read-out: C max, w4) of the same molecule?
A: 219 ± 41.3 ng/mL

Q: And the half-life ([4]; both sexes, beagle, im, week four, 6 mg kg^−1 daily i.m., dog plasma, read-out: T 1/2, w4 (biological half-life) (converted))?
A: 3 ± 1.16 h

Q: What about the Tmax ([4]; both sexes, beagle, im, week four, 6 mg kg^−1 daily i.m., dog plasma, read-out: T max, w4) of the same molecule?
A: 0.5 ± 0.03 h

Q: What about the “maximum plasma concentration after dosing” value (from here on “maximum plasma concentration”) ([4]; day 1) of the same molecule?
A: 90.63 ± 24.99 µg/L

Q: What about the “maximum plasma concentration” value ([4]; week 4) of the same molecule?
A: 219.10 ± 41.30 µg/L

Q: And the “maximum plasma concentration” value ([4]; week 8)?
A: 46.20 ± 13.15 µg/L

Q: What about the “maximum plasma concentration” value ([4]; week 13) of the same molecule?
A: 43.85 ± 10.79 µg/L

Q: And the “Severity of muscle tissue injury at the injection site” value (“Severity of muscle tissue injury” for short) (beagle dogs [5]; W4, 6 mg kg^−1 i.m., grades 0 (no significant lesions) to 5 (severe))?
A: 2.25±0.87

Q: What about the “Severity of muscle tissue injury” value (beagle dogs [5]; W8, 6 mg kg^−1 i.m., grades 0 to 5) of the same molecule?
A: 2.67±0.78

Q: And the “Severity of muscle tissue injury” value (beagle dogs [5]; W13, 6 mg kg^−1 i.m., grades 0 to 5)?
A: 3.92±1.08

Q: What about the “Severity of muscle tissue injury” value (beagle dogs [5]; W17 (after 4-week recovery), grades 0 to 5) of the same molecule?
A: 3.84±0.72

Q: What about the “inflammation of muscle tissue at the injection site” value (beagle dogs [5]; i.m. injection, vs vehicle control group) of the same molecule?
A: more severely inflamed than that in the vehicle control group

Q: What about the “absolute or relative weights of brain, heart, liver, spleen, lungs, kidneys, adrenals, thyroid/parathyroids, pancreas, ovaries, testes or prostate” value (beagle dogs [6]; 6 mg kg^-1 per day, vs relative controls) of the same molecule?
A: no statistically significant effects

Q: What about the thymus weight (beagle dogs [6]; weeks 4 and 8, one of the two male dogs, i.m.) of the same molecule?
A: mild decrease

Q: What about the “ultra-structural findings in hepatocytes, myocardial cells and proximal tubules in the kidney” value (beagle dogs [7]) of the same molecule?
A: Mitochondrial bending and distortion and swollen vacuoles

Q: And the “Effect (toxicology)” value (Rats [8])?
A: Damage of trapezoid nuclei, abnormalities in balance and coordination

Q: And the “Effect (toxicology)” value (Mouse)?
A: Balance/gait disturbances and mortality

Q: What about the Hb levels (Rats [9]; [13]) of the same molecule?
A: reversible increase

Q: And the QT interval (Rats [9]; [13])?
A: No changes

Q: And the reticulocyte count (Rats [9]; [13])?
A: reversible reduction

Q: What about the liver finding (Rats [9]; [14]) of the same molecule?
A: transient focal vesicle degeneration of the liver

Q: What about the neuropathological alterations (Rats [9]; [14]) of the same molecule?
A: no evidence of neuropathological alterations

Q: What about the “lowest observed neurotoxic effect level (plasma concentration)” value [10] of the same molecule?
A: 40.92 ng/mL
